Laboratory results as given in ChEMBL document CHEMBL1201862, “PubChem BioAssay data set” (2004).
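Protocol summary: plate cells (96-well), add compound at 5 concentrations, incubate 48 h, interpolate endpoints linearly. GI50 = concentration required for 50% inhibition of growth.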 The source made the active and inactive calls. Rule as the data show it: active = GI50 up to about 1.1 µM and inactive = higher.

Assays:
Experiment in all cases: NCI tumour cell line growth inhibition, 48 h
MDA-N = system: MDA-N
DMS-114 = system: DMS-114
BT-549 = system: BT-549
KM-20L2 = system: KM-20L2
RXF 631 = system: RXF 631
HOP-18 = system: HOP-18
SNB-78 = system: SNB-78
DLD-1 = system: DLD-1
XF498 = system: XF498

Compound | GI50 (MDA-N) | GI50 (DMS-114) | GI50 (BT-549) | GI50 (KM-20L2) | GI50 (DLD-1) | further results
CC(C)[Si](OC1=C(C(=O)N(C)c2cccc(Cl)c2)CCCC1)(C(C)C)C(C)C | 17.4 µM (inactive) |  |  |  |  | 
C/C(=N\Nc1ccccc1)C(CN(C)C)C(c1ccccc1)c1c(O)c2ccccc2oc1=O (stereo unspecified) | > 100 µM (inactive) | > 100 µM (inactive) | > 100 µM (inactive) | > 100 µM (inactive) |  | GI50 (RXF 631): > 100 µM (inactive)
O=S1(=O)OCCOS(=O)(=O)C1Cl |  | > 100 µM (inactive) |  |  | > 100 µM (inactive) | GI50 (HOP-18): > 100 µM (inactive); GI50 (SNB-78): > 100 µM (inactive)
COc1c(Cl)nc2ccccc2c1N=[N+]=[N-] | > 100 µM (inactive) |  | 19.8 µM (inactive) |  |  | 
O=C(N/N=C(\c1nc2ccc(Cl)cc2nc1O)C(O)c1ccccc1Cl)c1ccncc1 (stereo unspecified) |  | > 100 µM (inactive) |  | > 100 µM (inactive) | > 100 µM (inactive) | GI50 (RXF 631): > 100 µM (inactive); GI50 (HOP-18): > 100 µM (inactive)
N#Cc1cnn2ccn(C3OC(COC(=O)c4ccccc4)C(OC(=O)c4ccccc4)C3OC(=O)c3ccccc3)c12 (stereo unspecified) | > 21.5 µM (inactive) |  | > 100 µM (inactive) |  |  | 
COc1ccc(C(=O)N2CCc3c([nH]c4ccccc34)C2C(=O)O)o1 (stereo unspecified) | > 10 µM (inactive) |  | > 10 µM (inactive) |  |  | 
COc1ccc(/C(=N/O)C(c2ccc(OC)cc2)C2C(=O)Oc3ccccc32)cc1 (stereo unspecified) |  | 26.6 µM (inactive) |  |  | 83.4 µM (inactive) | GI50 (HOP-18): > 100 µM (inactive); GI50 (SNB-78): > 100 µM (inactive)
COc1cc2ccc1-c1cc(ccc1O)CC1c3cc4c(cc3CCN1C)Oc1c(OC)cc3c(c1O4)C(C2)N(C)CC3 (stereo unspecified) |  | 2 µM (inactive) |  | 1.46 µM (inactive) | 2.28 µM (inactive) | GI50 (SNB-78): 2.1 µM (inactive); GI50 (XF498): 1.92 µM (inactive)
N#CC(c1nc2ccccc2nc1Cl)S(=O)(=O)c1ccccc1 (stereo unspecified) |  | > 100 µM (inactive) |  | > 100 µM (inactive) | > 100 µM (inactive) | GI50 (SNB-78): 25.8 µM (inactive); GI50 (XF498): 37.6 µM (inactive)
Cc1noc(/N=C2\C=C(O)C(=O)c3ccccc32)c1C | 0.173 µM (active) |  | 1.05 µM (active) |  |  | 
NC1=NS(=O)(=O)Nc2nc(-c3ccc([N+](=O)[O-])o3)[nH]c21 |  | 14.2 µM (inactive) |  | 23.1 µM (inactive) | 15.8 µM (inactive) | GI50 (HOP-18): 16.3 µM (inactive)
CN(C)CC1(C)CC/C(=C\c2ccc(Cl)cc2)C1=O (stereo unspecified) |  | 22.6 µM (inactive) |  | 21.3 µM (inactive) | 29.2 µM (inactive) | GI50 (HOP-18): 46 µM (inactive); GI50 (SNB-78): 40.8 µM (inactive); GI50 (XF498): 78.9 µM (inactive)
C=C(C)CCC1CC=[N+]([O-])OC1C(C)(C)C (stereo unspecified) | 42.3 µM (inactive) |  |  |  |  | 
Cc1nccn1S(=O)(=O)c1ccc(Cl)cc1 | 22.2 µM (inactive) |  | 74.5 µM (inactive) |  |  | 
COc1cc2nc(-c3cccs3)[nH]c(=O)c2cc1OC |  |  | > 100 µM (inactive) |  |  | 

Compound | GI50 (MDA-N) | GI50 (DMS-114) | GI50 (BT-549) | GI50 (KM-20L2) | GI50 (DLD-1) | further results
CC1(C)N=c2c(ncn2Cc2ccccc2)=C(C(N)=O)N1 | > 100 µM (inactive) |  |  |  |  | 
COC(=O)CP1(=O)OC2C(C3CCC2(C)C3(C)C)N1c1cc(C(F)(F)F)cc(C(F)(F)F)c1 (stereo unspecified) |  |  | 27.2 µM (inactive) |  |  | 
O=C(/C=C/NC(=O)OCc1ccccc1)OCc1ccccc1 | > 100 µM (inactive) |  | > 100 µM (inactive) |  |  | 
Nc1n[n+](-c2ccccc2)no1 |  | 18.3 µM (inactive) |  | 10.8 µM (inactive) | 5.7 µM (inactive) | GI50 (SNB-78): > 100 µM (inactive)
CCOC(=O)[C@@]12CCC(C1=O)[C@](C)(O)C[C@@H]2c1ccccc1 | 3.86 µM (inactive) |  | 58.5 µM (inactive) |  |  | 
Nc1ncnc2c1nnn2C1C=CC(CP(=O)(O)O)C1 (stereo unspecified) | > 100 µM (inactive) |  |  |  |  | 
COc1cc([N+](=O)[O-])c(S(=O)(=O)O)cc1N | > 100 µM (inactive) |  | > 100 µM (inactive) |  |  | 
Cn1cnc(N2CCCC2)c(C#N)c1=S | > 100 µM (inactive) |  |  |  |  | 
C1=CC=C2NCCSCC/N=C3/C=CC=CC=C3NCCSCC/N=C\2C=C1 |  | > 100 µM (inactive) |  | > 100 µM (inactive) | > 100 µM (inactive) | GI50 (HOP-18): > 100 µM (inactive); GI50 (SNB-78): > 100 µM (inactive)
C=CCC1C2CCC(O[Si](C(C)C)(C(C)C)C(C)C)(C(C(=O)OC)C2)C1O (stereo unspecified) | > 100 µM (inactive) |  |  |  |  | 
NCCCn1c2ccccc2c2c3c(c4c(c21)CCC(O)CC4)C(=O)NC3=O (stereo unspecified) |  |  | 4.81 µM (inactive) |  |  | 
O=c1[nH]cnc2[nH]nnc12 |  | 8.02 µM (inactive) |  | 3.87 µM (inactive) |  | GI50 (HOP-18): 2.33 µM (inactive); GI50 (SNB-78): 6.3 µM (inactive); GI50 (XF498): 7.5 µM (inactive)
Brc1ccc2c(-c3csc(-c4c[nH]c5cc(Br)ccc45)n3)c[nH]c2c1 | 5.43 µM (inactive) |  | > 64.1 µM (inactive) |  |  | 
CCCC(=O)Oc1cc(OC(=O)CCC)c2c(C)cc(=O)oc2c1 | 62.2 µM (inactive) |  |  |  |  | 
CN(C)CCC1(C2=CCCC2)CC/C(=C\c2ccccc2Cl)C1=O (stereo unspecified) |  | 12.2 µM (inactive) |  | 11.5 µM (inactive) | 15.2 µM (inactive) | GI50 (RXF 631): 6.07 µM (inactive); GI50 (HOP-18): 12.4 µM (inactive); GI50 (SNB-78): 12.4 µM (inactive)
